Source: patent US20070026079A1, “Intranasal administration of modulators of hypothalamic ATP-sensitive potassium channels” (priority 2005, published 2007)

Legend:
[1] = tested on: hypothalamic KATP channels; assay: Central insulin or diazoxide in rats on a high fat diet for three days (hepatic insulin resistance); assay type: in vivo; conditions: basal plasma insulin (20 μU/ml)
Protocol: Additional-experiments were also performed in rats maintained on a high fat diet regimen for three days.

[2] = tested on: KATP channels within the medial hypothalamus; assay: Intrahypothalamic (IH) infusion of diazoxide or insulin with pancreatic-insulin clamp in rats; assay type: in vivo, Sprague-Dawley rats; conditions: for rate of glucose infusion required to prevent hypoglycemia: IH infusion during pancreatic clamp, vs vehicle; for blood glucose levels / glucose production (GP): IH infusion; for blood glucose levels: bilateral, medial hypothalamus, fifteen-fold lower dose than ICV; for glucose production (GP): basal circulating insulin
From the text: Animal preparation for the in vivo experiments. Rats. Eighty-nine 10-week-old male Sprague-Dawley rats (Charles River Breeding Laboratories, Wilmington, Mass.) were studied. Rats were housed in individual cages and subjected to a standard light-dark cycle. Three weeks prior to the in vivo studies, chronic catheters were implanted in the third cerebral ventricle (Obici et al., 2003; Liu et al., 1998) or intrahypothalamically (Morton et al., 2003) (IH) by stereotaxic surgery. One week before the pancreatic-insulin clamp protocols, rats received additional catheters in the right internal jugular and left carotid artery (FIG. 5) (Obici et al., 2003; Liu et al., 1998). In vivo studies. For the studies in rats, the metabolic experiments were performed ˜3 weeks after stereotaxic surgery following complete recovery from the operation (FIG. 5). All solutions were diluted with artificial cerebral spinal fluid (aCSF). […] Pancreatic-insulin clamp studies were performed as previously described (Liu et al., 1998). Euglycemic-hyperinsulinemic clamps in conscious, unrestrained, catheterized […] were performed for 90 min as previously described (Obici et al., 2003; Liu et al., 1998).

[3] = tested on: PEPCK; assay: Hepatic expression of PEPCK by real-time PCR after central infusions; assay type: in vivo, Sprague-Dawley rats
From the text: (§1) Gene expression. Gluconeogenic enzymes. Quantitative analysis of gene expression was done using RT-PCR. Total RNA was isolated with Trizol (Invitrogen) and single-strand cDNA was synthesized with a kit provided by Invitrogen. Real-time PCR reactions and the primers for G6 Pase and PEPCK were done as described (Pocai et al., in press). The copy number of each transcript was derived from a standard curve of cloned target templates. Expression of each transcript was normalized to copy number for 18s ribosomal protein.

[4] = tested on: central KATP channels; assay: ICV infusion of diazoxide with pancreatic-insulin clamp (1 mU/kg.min) in conscious rats; assay type: in vivo, Sprague-Dawley rats
From the text: (§2) Animal preparation for the in vivo experiments. Rats. Eighty-nine 10-week-old male Sprague-Dawley rats (Charles River Breeding Laboratories, Wilmington, Mass.) were studied. Rats were housed in individual cages and subjected to a standard light-dark cycle. Three weeks prior to the in vivo studies, chronic catheters were implanted in the third cerebral ventricle (Obici et al., 2003; Liu et al., 1998) or intrahypothalamically (Morton et al., 2003) (IH) by stereotaxic surgery. One week before the pancreatic-insulin clamp protocols, rats received additional catheters in the right internal jugular and left carotid artery (FIG. 5) (Obici et al., 2003; Liu et al., 1998).
(§3) In vivo studies. For the studies in rats, the metabolic experiments were performed ˜3 weeks after stereotaxic surgery following complete recovery from the operation (FIG. 5). All solutions were diluted with artificial cerebral spinal fluid (aCSF). […] Pancreatic-insulin clamp studies were performed as previously described (Liu et al., 1998). Euglycemic-hyperinsulinemic clamps in conscious, unrestrained, catheterized mice were performed for 90 min as previously described (Obici et al., 2003; Liu et al., 1998).
(§4) Hepatic alucose fluxes. Rate of hepatic glucose fluxes was determined as described. Barzilai et al., 1997).

[5] = tested on: G6 Pase; assay: Hepatic expression of G6 Pase by real-time PCR after central infusions; assay type: in vivo, Sprague-Dawley rats
From the text: as §1

[6] = tested on: hypothalamic KATP channels; assay: ICV infusion of insulin, KATP channel blocker (glibenclamide) or both with pancreatic-insulin clamp (1 mU/kg.min) in rats; assay type: in vivo, Sprague-Dawley rats; conditions: for Glucose: plasma; for rate of glucose infusion / glucose requirements: near basal circulating insulin levels
From the text: as §2, with “surgery.” for “surgery. One week before the pancreatic-insulin clamp protocols, rats received additional catheters in the right internal jugular and left carotid artery (FIG. 5) (Obici et al., 2003; Liu et al., 1998).”
(§5) In vivo studies. For the studies in rats, the metabolic experiments were performed ˜3 weeks after stereotaxic surgery following complete recovery from the operation (FIG. 5). All solutions were diluted with artificial cerebral spinal fluid (aCSF). […] Euglycemic-hyperinsulinemic clamps in conscious, unrestrained, catheterized mice were performed for 90 min as previously described (Obici et al., 2003; Liu et al., 1998).
as §4

[7] = biological target: T1, hypothalamic insulin receptors (Rattus norvegicus, UniProt P15127); assay: ICV insulin with pancreatic-insulin clamp in rats with hepatic vagotomy (HV), sham operation or vagal deafferentation; assay type: in vivo, Sprague-Dawley rats; conditions: for Body wt.: ICV infusion; for 14C-PEP: liver
T1 construct: Paired groups of SHAM and HV rats received an ICV infusion of either insulin or vehicle; from tissue; host or cells: brain/hypothalamus of living Sprague-Dawley rats (sham, hepatic vagotomy or vagal deafferentation)
T1 sequence (P15127 27-759 limits assumed): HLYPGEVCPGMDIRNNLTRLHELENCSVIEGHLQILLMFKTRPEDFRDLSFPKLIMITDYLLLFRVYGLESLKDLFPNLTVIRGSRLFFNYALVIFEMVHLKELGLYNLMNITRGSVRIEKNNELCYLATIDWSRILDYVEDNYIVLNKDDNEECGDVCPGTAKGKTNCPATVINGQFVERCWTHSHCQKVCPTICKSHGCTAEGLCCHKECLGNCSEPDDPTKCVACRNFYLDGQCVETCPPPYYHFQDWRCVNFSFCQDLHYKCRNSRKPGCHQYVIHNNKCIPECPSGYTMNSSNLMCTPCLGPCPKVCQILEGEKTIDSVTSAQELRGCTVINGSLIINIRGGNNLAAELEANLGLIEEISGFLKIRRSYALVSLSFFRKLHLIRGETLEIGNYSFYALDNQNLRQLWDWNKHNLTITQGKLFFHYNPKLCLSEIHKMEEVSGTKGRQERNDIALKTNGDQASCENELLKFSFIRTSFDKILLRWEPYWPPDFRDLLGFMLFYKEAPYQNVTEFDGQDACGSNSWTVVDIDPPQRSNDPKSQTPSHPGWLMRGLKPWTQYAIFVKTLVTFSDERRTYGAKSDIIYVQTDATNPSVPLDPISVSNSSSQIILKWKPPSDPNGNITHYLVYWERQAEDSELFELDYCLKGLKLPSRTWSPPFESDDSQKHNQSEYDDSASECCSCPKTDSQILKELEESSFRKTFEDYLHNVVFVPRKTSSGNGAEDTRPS
T1 sequence (P15127 764-1383 partner limits assumed): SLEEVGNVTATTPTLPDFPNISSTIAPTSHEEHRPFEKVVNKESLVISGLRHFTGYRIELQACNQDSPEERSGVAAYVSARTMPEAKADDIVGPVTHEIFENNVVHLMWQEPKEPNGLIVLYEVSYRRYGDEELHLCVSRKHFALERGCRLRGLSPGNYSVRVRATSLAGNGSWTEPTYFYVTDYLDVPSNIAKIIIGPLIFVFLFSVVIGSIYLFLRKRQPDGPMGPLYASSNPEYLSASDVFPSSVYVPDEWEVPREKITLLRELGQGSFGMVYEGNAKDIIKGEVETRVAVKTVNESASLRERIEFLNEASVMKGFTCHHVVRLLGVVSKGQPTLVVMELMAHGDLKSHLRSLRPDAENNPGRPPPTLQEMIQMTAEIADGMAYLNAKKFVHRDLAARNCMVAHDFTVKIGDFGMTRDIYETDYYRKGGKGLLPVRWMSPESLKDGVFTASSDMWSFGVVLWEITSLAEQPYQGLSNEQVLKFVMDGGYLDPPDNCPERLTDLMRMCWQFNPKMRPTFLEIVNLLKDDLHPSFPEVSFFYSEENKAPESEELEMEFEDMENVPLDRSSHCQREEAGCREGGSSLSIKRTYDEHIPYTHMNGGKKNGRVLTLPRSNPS
From the text: as §2, with “surgery.” for “surgery. One week before the pancreatic-insulin clamp protocols, rats received additional catheters in the right internal jugular and left carotid artery (FIG. 5) (Obici et al., 2003; Liu et al., 1998).”
as §5
(§6) Selective hepatic branch vagotomy. One week before the clamp procedure a subgroup of rats underwent selective hepatic vagotomy (HV) or sham operation (SHAM). Anatomical nerve transactions was verified in each rat at sacrifice by microscopic observation of the absence of vagal nerve fibers in between the two silk sutures that had been placed along the trunk at the time of transection (la Fleur et al., 2003).
Selective vagal deafferentation. Nerve transection was performed as previously described, according to the methods of Norgren and Smith (Norgren & Smith, 1998).
as §4

[8] = tested on: hepatic glucose production; assay: Pancreatic-hyperinsulinemic clamp (systemic insulin 3 mU/kg.min) in SHAM and HV rats; assay type: in vivo, Sprague-Dawley rats; conditions: systemic hyperinsulinemia ~3-fold over basal
Protocol: Panel A is a schematic representation of the pancreatic-hyperinsulinemic clamp procedure. At t=120 an infusion of labeled glucose was initiated and maintained for the remaining 4 hours of the study and a pancreatic hyperinsulinemic clamp was initiated at t=240 min and lasted for 2 hours.
as §3, §6

[9] = ICV infusion, liver harvested at completion of infusions
[10] = Basal, before the clamp, ICV infusion

CC1=NS(=O)(=O)c2cc(Cl)ccc2N1 [diazoxide]
inhibition of glucose production ([1]; ICV or intrahypothalamic infusion): ~45%
rate of glucose infusion required to prevent hypoglycemia [2]: significant increases
blood glucose levels [2]: lowered blood glucose levels
glucose production (GP) [2]: marked suppression of GP
liver PEPCK mRNA levels [3, 9]: markedly decreased
Glucose ([4]; Basal, before the clamp, plasma, ICV infusion): 7.9 ± 0.4 mM
gluconeogenesis ([4]; ICV): marked inhibition of gluconeogenesis
glucose cycling ([4]; ICV): significantly reduced glucose cycling
rate of glycogenolysis ([4]; ICV): not significantly decreased
blood glucose levels ([4]; ICV (third cerebral ventricle), conscious rats): lowered blood glucose levels
glucose infusion required to prevent hypoglycemia ([4]; ICV, basal circulating insulin levels): glucose infusion was required to prevent hypoglycemia
decrease in glucose production (GP) ([4]; ICV, basal insulin levels (~20 μU/ml)): 45±4%
flux through G6 Pase ([4]; ICV, in vivo): decreased the flux through G6 Pase
rate of glucose uptake ([4]; ICV, pancreatic-insulin clamp): not significantly affected
% Indirect ([4]; indirect pathway (gluconeogenesis), ICV infusion, Table 6): 9.7 ± 4.1 %
liver G6 Pase mRNA levels [5, 9]: markedly decreased

COc1ccc(Cl)cc1C(=O)NCCc1ccc(S(=O)(=O)NC(=O)NC2CCCCC2)cc1 [glibenclamide, 5-Chloro-N-[2-[4-(3-cyclohexylureidosulfonyl)phenyl]ethyl]-2-methoxybenzamide, reference compound]
Glucose [6, 10]: 8.2 ± 0.5 mM
Glucose ([6]; Clamp steady state, ICV infusion): 8.2 ± 0.9 mM
rate of glucose infusion / glucose requirements ([6]; ICV): did not modify the rate of glucose infusion
glucose production (GP) ([6]; ICV, pancreatic clamp): did not per se affect GP
% Indirect ([6]; indirect pathway (gluconeogenesis), ICV infusion, Table 7): 32.4 ± 3.0%

insulin
Body wt. ([7]; HV, Basal): 295 ± 4 g
FFA ([7]; HV, Basal, plasma): 0.5 ± 0.2 mM
Glucose ([7]; HV, Basal, plasma): 7.9 ± 0.5 mM
FFA ([7]; HV, Clamp steady state, plasma): 0.5 ± 0.3 mM
Glucose ([7]; HV, Clamp steady state, plasma): 8.0 ± 0.6 mM
Insulin ([7]; HV, Clamp steady state, plasma): 0.9 ± 0.3 ng/mL
hepatic glucose fluxes ([7]; HV, ICV): failed to affect hepatic glucose fluxes
decrease in glucose production (GP) ([7]; HV, ICV, basal and equal insulin levels): not in HV rats
3H-Glucose Plasma SA ([7]; HV, Table 8): 52.4 ± 3.5 dpm/nmol
% Indirect ([7]; HV, indirect pathway (gluconeogenesis), Table 8): 34.4 ± 9.7%
14C-PEP ([7]; HV, Table 8): 5.5 ± 1.4 dpm/nmol
rate of glucose uptake ([7]; ICV, either SHAM or HV rats): not significantly affected
flux through G6 Pase ([7]; SHAM, ICV): markedly decreased the flux through G6 Pase
gluconeogenesis ([7]; SHAM, ICV): marked inhibition of gluconeogenesis
glucose infusion required to prevent hypoglycemia ([7]; SHAM, ICV, ~basal circulating insulin): glucose infusion was required to prevent hypoglycemia
3H-Glucose Plasma SA ([7]; SHAM, Table 8): 43.1 ± 1.9 dpm/nmol
3H-UDP-glucose Liver SA ([7]; SHAM, Table 8): 5.5 ± 0.5 dpm/nmol
Direct (%) ([7]; SHAM, direct pathway, Table 8): 12.1 ± 0.71%
14C-PEP ([7]; SHAM, Table 8): 10.9 ± 0.6 dpm/nmol
Body wt. ([7]; Sham, Basal): 310 ± 5 g
FFA ([7]; Sham, Basal, plasma): 0.5 ± 0.3 mM
Glucose ([7]; Sham, Basal, plasma): 7.9 ± 0.3 mM
FFA ([7]; Sham, Clamp steady state, plasma): 0.4 ± 0.1 mM
ability to lower blood glucose levels and to suppress GP ([7]; rats with selective vagal deafferentation, ICV): did not alter
inhibition of glucose production ([1]; central administration): failed to significantly inhibit glucose production
suppression of GP ([8]; HV): 38±11%
suppression of GP ([8]; SHAM): 80±8%
rate of glucose infusion required to prevent hypoglycemia [2]: significant increases
blood glucose levels [2]: reproduced the potent effects of ICV insulin or diazoxide
glucose production (GP) [2]: reproduced the potent effects of ICV insulin or diazoxide
Glucose [6, 10]: 7.8 ± 0.3 mM
flux through G6 Pase ([6]; ICV): markedly decreased the flux through G6 Pase
gluconeogenesis ([6]; ICV): marked inhibition of gluconeogenesis
rate of glycogenolysis ([6]; ICV): not significantly decreased
blood glucose levels ([6]; ICV (third cerebral ventricle)): lowers blood glucose levels
decrease in glucose production (GP) ([6]; ICV, basal and equal insulin levels): 52±8%
rate of glucose infusion / glucose requirements ([6]; ICV): glucose infusion was required to prevent hypoglycemia
liver PEPCK mRNA levels [3, 9]: marked KATP channels dependent decreases
liver PEPCK mRNA levels ([3]; SHAM, ICV): marked decrease
liver G6 Pase mRNA levels [5, 9]: marked KATP channels dependent decreases
liver G6 Pase mRNA levels ([5]; SHAM, ICV): marked decrease
